This note sets out measurements from ChEMBL document CHEMBL3085770, “The functional group on (E)-4,4'-disubstituted stilbenes influences toxicity and antioxidative activity in differentiated PC-12 cells” (Bioorg Med Chem Lett, 2013).

The source made the active and inactive calls. No cut-off for these calls is given here.

Data set [1] in a line: Chemical stability of the compound in PBS buffer at 1 ug/ml after 24 hrs by fluorescence assay in presence of 0.3% H2O2. It is filed as physicochemical.
The test system of data set [2] is Radical scavenging activity. As to the kind of experiment: Antioxidant activity assessed as DPPH free radical scavenging activity over 30 mins by spectrophotometry. It is filed as functional.
Data set [3] can be described thus: Cytotoxicity against rat differentiated PC12 cells assessed as cell viability at <= 10 ug/ml after 15 hrs by MTS assay. It is filed as cell-based. Particulars: pc-12, 15 h. In general terms: Tetrazolium assays rely on reduction of a dye to a coloured formazan, in cell work by metabolically active cells.
A further data set relates to PC-12. As to the kind of experiment: Antioxidant activity in rat differentiated PC12 cells assessed as inhibition of H2O2-induced cell death after 15 hrs by MTS assay. It is filed as functional, cell-based.

With `N#Cc1ccc(/C=C/c2ccc(C#N)cc2)cc1`, the Stability entry in data set [1] is listed as “Unstable”. Further, the outcome in data set [2] was inactive. The Activity entry in data set [3] is “Non-toxic”.

For the compound `Nc1ccc(/C=C/c2ccc(N)cc2)cc1`, the outcome (in data set [2]; with PC-12) was Active. In data set [3], the Activity entry is on record as “Non-toxic”.

For `CC(O)c1ccc(/C=C/c2ccc(C(C)O)cc2)cc1` (stereo not given), the result (in data set [2]; with PC-12) was inactive. The Activity entry in data set [3] is listed as “Non-toxic”.

Take `Oc1ccc(/C=C/c2ccc(O)cc2)cc1`: the outcome with PC-12 was Active.

For the compound `CC(=O)c1ccc(/C=C/c2ccc(C(C)=O)cc2)cc1`, the Stability entry in data set [1] is given as “Unstable”. Also, the result in data set [2] was inactive. The Activity entry in data set [3] is recorded as “Non-toxic”.

Consider `C(=C\c1ccccc1)/c1ccccc1`, for which the result in data set [2] was inactive. For the same compound, the Activity entry in data set [3] is listed as “Non-toxic”.
